The values below come from article PMC9656205, “In Vitro/In Vivo Translation of Synergistic Combination of MDM2 and MEK Inhibitors in Melanoma Using PBPK/PD Modelling: Part I” (International Journal of Molecular Sciences, 2022).

Read-outs that look alike come from different tables or passages of the source.

The test system of series [1] is A375 cells. As to the kind of experiment: MTS assay (CellTiter 96 AQueous) cytotoxicity and drug interaction analysis. It counts as cell-based. Particulars: Homo sapiens, A-375; for IC50: A375 cells, 72 h incubation, read-out: MTS IC50 ± SD. As to the method:
(§1) Inhibition of tumour cell viability after single and combination drug treatment was measured with the use of MTS assay (CellTiter 96® AQueous Non-Radioactive Cell Proliferation Assay) and RealTime-Glo assay (RealTime-Glo™ MT Cell Viability Assay) in A375 cell line using standard manufacturer protocols. […] Drug combinations were tested in the matrix layout with the increasing concentrations of both drugs (please see Figures S1 and S2). […] Several independent assay repetitions were performed for MTS (n = 4) and RealTime-Glo assays (n = 3).
(§2) Drug combination interaction analysis was performed on in vitro cytotoxicity data from MTS and RealTime-Glo assays. […] For Synergyfinder analysis parameters, see Table S4. For a more detailed description of all Synergyfinder functions, please see its documentation and user instructions.

Series [2] in a line: Pharmacokinetics in plasma and A375 tumour tissue after single oral administration. It is filed as in vivo, CD-1 nude mice. Particulars: female, Crl:CD-1-Foxn1nu (CD-1 nude), mouse; for Cmax: n = 3; for AUC(0-t): n = 3, read-out: AUC0–24h ± SD. As for the experimental part:
Pharmacokinetic profiles were determined after single oral administration of HDM201 (100 mg/kg) and Trametinib (1 mg/kg) in vehicle formulation in CD-1 nude mice. Initial analysis of compound concentrations included plasma and A375 tumour tissue homogenates.
(§3) Crl:CD-1-Foxn1^nu female mice, 4–5 weeks old, from Charles River Germany, inoculated subcutaneously with A375 cells, were used for in vivo studies. Determination of compound concentrations in plasma and A375 tumour tissue homogenates were performed with the use of quantitative LC-MS/MS system. Plasma and tissue samples were resected at the following timepoints: 1.5, 4, 8, 24 h (n = 3 per timepoint) after oral administration. Pharmacokinetic parameters AUC, Cmax, and Tmax were calculated using MS Excel 2016. Area under the concentration versus time curve was calculated using the linear trapezoidal rule.

In series [3] the test system is A375 cells. As to the kind of experiment: Mean of MTS and RealTime-Glo assays (cytotoxicity / drug interaction metrics). It is filed as cell-based, human. As for the experimental part:
as §1, §2

In series [4] the test system is A375 cells. The series is described as follows: RealTime-Glo MT cell viability assay, cytotoxicity and drug interaction analysis. Particulars: Homo sapiens, A-375, n = 3; for IC50: A375 cells, 72 h incubation, read-out: RealTime-Glo IC50 ± SD. It is filed as cell-based. As to the method:
as §1, §2

For series [5], the system named is A375 cells. More on the design: method as in PMID 22169769. Particulars: cell count by DAPI nuclei staining, read-out: Literature IC50; cited from earlier work.
Series [6] concerns A375 melanoma tumour model. The series is described as follows: In vivo efficacy, tumour growth inhibition in A375 xenograft. More on the design: species or system CD-1 nude mice. Particulars: n = 6. As for the experimental part: The studied compounds, namely HDM201 and Trametinib, were tested separately and in combination as a therapy against an A375 melanoma tumour model. Tested compounds were administrated in three and six doses per schedule. […] Data from this efficacy study indicate that HDM201 and Trametinib are more efficacious when they are used in combination, compared to their efficacy when administered separately (please refer to maximal tumour growth inhibition (TGI) percentage, presented in Table 7, and compounds efficacy in single and combined administrations, shown in Figure 9).
as §3
Determination of tumour growth was performed after oral gavage of Vehicle (60% PEG 400 (v/v), 10% Cremophor RH40 (v/v), 10% EtOH (v/v) and 20% Labrafil M1944CS (v/v)), Siremadlin, Trametinib or their combination in Vehicle. The volume of the administered formulation (10 mL/kg) of the compounds was always adjusted to the mice body weight.
Tumour volume (V) was recorded with an electronic calliper 2–3 times a week and was calculated based on its length and width, using the prolate ellipsoid equation [46] (Equation (1)):V (mm^3) = d^2 × D/2(1) where d is the tumour width (mm) and D is the tumour length (mm).
Tumour growth inhibition (TGI) value was calculated using Equation (2):TGI (%) = (100 − (T/C × 100))(2) where C is the mean tumour size in control group (mm^3) and T is the mean tumour size in treated group (mm^3).

Series [7] has as its system A375 cells. Details: method as in PMID 30135191. To be noted: cell count by amount of ATP (CellTiter-Glo assay), read-out: Literature IC50; cited from earlier work.
The mark [8] stands for this setting: A375 tumour tissue homogenate, 1 mg/kg, Trametinib 1 mg/kg single oral, with HDM201 100 mg/kg, A375 tumour.
Setting [9] is: A375 tumour tissue homogenate, 1 mg/kg, Trametinib 1 mg/kg single oral, without HDM201, A375 tumour.
The mark [10] stands for this setting: plasma, 1 mg/kg, Trametinib 1 mg/kg single oral, with HDM201 100 mg/kg, plasma.
Setting [11] is: plasma, 1 mg/kg, Trametinib 1 mg/kg single oral, without HDM201, plasma.
[12] abbreviates: plasma, range stated jointly for HDM201 and Trametinib, oral, mice, sparse sampling, read-out: typical Tmax.
[13] abbreviates: A375 tumour tissue homogenate, 100 mg/kg, HDM201 100 mg/kg single oral, without Trametinib, A375 tumour.
Setting [14] is: A375 tumour tissue homogenate, HDM201 100 mg/kg single oral, with Trametinib 1 mg/kg, A375 tumour.
The mark [15] stands for this setting: plasma, 100 mg/kg, HDM201 100 mg/kg single oral, without Trametinib, plasma.
Setting [16] is: plasma, HDM201 100 mg/kg single oral, with Trametinib 1 mg/kg, plasma.

As usually defined, the IC50 is the concentration needed to halve the response being measured. Usually viability stands for a per cent measure of how many cells are alive, often set against a control. The term Cmax denotes the highest concentration seen after dosing. One may read the Tmax as the time from dosing to the highest level. Consider `CC(=O)Nc1cccc(-n2c(=O)n(C3CC3)c(=O)c3c(Nc4ccc(I)cc4F)n(C)c(=O)c(C)c32)c1` [Trametinib], for which the IC50 was 0.00058 ± 3e-05 µM in series [1] (n = 4), 0.0008 ± 0.0004 µM in series [4] and 0.001 µM in series [5]. For the same molecule, in series [1] (MTS, max concentration 4 nM, last observation after 72h, n = 4, read-out: % of viability at the last measurement ± SD), the viability at 0.004 µM was found to be 13.3 ± 2.6%. Also, the Cmax amounted to 0.715 ± 0.197 µM in series [2] (setting [8]), 0.587 ± 0.0663 µM in series [2] (setting [9]), 0.354 ± 0.106 µM in series [2] (setting [10]) and 0.567 ± 0.0494 µM in series [2] (setting [11]). For the same molecule, the AUC(0-t) in series [2] (setting [8]) was 9.66 ± 1.39 µM·h; in series [2] (setting [9]), 9.13 ± 1.3 µM·h; in series [2] (setting [10]) it was 4.48 ± 1.17 µM·h; in series [2] (setting [11]) it was 5.58 ± 0.567 µM·h. The Tmax in series [2] (A375 tumour tissue homogenate, 1 mg/kg, Trametinib 1 mg/kg single oral, with HDM201 100 mg/kg, A375 tumour, n = 3, read-out: Tmax ± SD) is 4 h; in series [2] (A375 tumour tissue homogenate, 1 mg/kg, Trametinib 1 mg/kg single oral, without HDM201, A375 tumour, n = 3, read-out: Tmax ± SD), 4 h; in series [2] (plasma, 1 mg/kg, Trametinib 1 mg/kg single oral, with HDM201 100 mg/kg, plasma, n = 3, read-out: Tmax ± SD) it was 4 ± 1.44 h; in series [2] (plasma, 1 mg/kg, Trametinib 1 mg/kg single oral, without HDM201, plasma, n = 3, read-out: Tmax ± SD) it was 4 ± 1.44 h; in series [2] (setting [12]), 1.5 to 4 h. Also, the “% of viability at the last measurement ± SD” value in series [3] (Trametinib) is on record as 14.097 ± 2.594%. Besides, in series [4] (RealTime-Glo, max concentration 40 nM, last observation after 80h, read-out: % of viability at the last measurement ± SD), the viability at 0.04 µM worked out at 14.9 ± 2.59%. The “Max TGI (%) ± SEM” value in series [6] (Trametinib 0.3 mg/kg qdx6, oral) was 65.47 ± 21.29%; in series [6] (Trametinib 1 mg/kg qdx6, oral) it was 90.05 ± 1.13%.

In the case of `COc1ncc(-c2nc3c(n2C(C)C)[C@H](c2ccc(Cl)cc2)N(c2cc(Cl)cn(C)c2=O)C3=O)c(OC)n1` [Siremadlin (HDM201), Siremadlin], the IC50 in series [1] (n = 4) was 0.0657 ± 0.0047 µM; in series [7], 0.764 µM; in series [4], 0.26 ± 0.171 µM. Further, the viability at 0.2 µM in series [1] (MTS, max concentration 200 nM, last observation after 72h, n = 4 (resistant population estimate), read-out: % of viability at the last measurement ± SD) is 21.9 ± 5.92%. The Cmax in series [2] (setting [13]) stood at 16.2 µM; in series [2] (setting [14]), 28.6 µM; in series [2] (setting [15]) it was 9.78 ± 2.98 µM; in series [2] (setting [16]) it was 14.6 µM. The AUC(0-t) in series [2] (setting [13]) was found to be 179 µM·h; in series [2] (setting [14]), 219 µM·h; in series [2] (setting [15]), 95.1 µM·h; in series [2] (setting [16]), 108 µM·h. The Tmax is 1.5 ± 1.44 h in series [2] (A375 tumour tissue homogenate, 100 mg/kg, HDM201 100 mg/kg single oral, without Trametinib, A375 tumour, n = 3, read-out: Tmax ± SD); 1.5 ± 1.44 h in series [2] (A375 tumour tissue homogenate, HDM201 100 mg/kg single oral, with Trametinib 1 mg/kg, A375 tumour, n = 3, read-out: Tmax ± SD); 1.5 ± 1.44 h in series [2] (plasma, 100 mg/kg, HDM201 100 mg/kg single oral, without Trametinib, plasma, n = 3, read-out: Tmax ± SD); 1.5 ± 1.44 h in series [2] (plasma, HDM201 100 mg/kg single oral, with Trametinib 1 mg/kg, plasma, n = 3, read-out: Tmax ± SD); 1.5 to 4 h in series [2] (setting [12]). Also, the “% of viability at the last measurement ± SD” value in series [3] (Siremadlin) is on record as 21.445 ± 6.389%. Also, in series [4] (RealTime-Glo, max concentration 4000 nM, last observation after 80h, read-out: % of viability at the last measurement ± SD), the viability at 4 µM was determined as 21 ± 6.86%. Besides, the “Max TGI (%) ± SEM” value in series [6] (HDM201 40 mg/kg qdx3, oral) was determined as 33.39 ± 13.90%; in series [6] (HDM201 100 mg/kg qdx3, oral), 76.94 ± 5.38%.
